“Also recorded” adds a separate entry of the source.
Experiments:
AKT [1] = experiment: Western blotting of T-AKT in SW620 cells; assay type: cell-based; conditions: for effect on AKT protein levels at high concentrations (in words): concentrations up to 10 μM
AKT3 = AKT3 (Homo sapiens, UniProt Q9Y243); experiment: AKT activity inhibition assay; assay type: biochemical; conditions: 10 μM ATP
SW620 cells [2] = experiment: Cell proliferation assay; assay type: cell-based; conditions: 5 days, IncuCyte
AKT2 [3] = target: T1, AKT2 (Homo sapiens, UniProt P31751); experiment: AKT activity inhibition assay; assay type: biochemical; conditions: 10 μM ATP
T1 sequence (P31751 whole entry): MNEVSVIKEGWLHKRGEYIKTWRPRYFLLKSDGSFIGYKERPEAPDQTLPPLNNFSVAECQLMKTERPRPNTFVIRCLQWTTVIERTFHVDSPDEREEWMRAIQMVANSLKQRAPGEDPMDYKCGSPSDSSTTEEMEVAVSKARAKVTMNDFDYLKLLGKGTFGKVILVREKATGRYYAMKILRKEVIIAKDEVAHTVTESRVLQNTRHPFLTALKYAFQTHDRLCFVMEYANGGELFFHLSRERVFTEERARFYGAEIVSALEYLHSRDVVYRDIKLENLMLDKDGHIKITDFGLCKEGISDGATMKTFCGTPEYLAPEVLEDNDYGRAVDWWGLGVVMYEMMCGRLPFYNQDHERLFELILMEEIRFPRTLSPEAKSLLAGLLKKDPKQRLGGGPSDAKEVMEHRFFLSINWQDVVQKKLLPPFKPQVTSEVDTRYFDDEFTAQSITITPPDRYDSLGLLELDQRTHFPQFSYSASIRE

AKT1 [4] = target: T2, AKT1 (Homo sapiens, UniProt P31749); experiment: AKT activity inhibition assay; assay type: biochemical; conditions: 10 μM ATP
T2 sequence (P31749 whole entry): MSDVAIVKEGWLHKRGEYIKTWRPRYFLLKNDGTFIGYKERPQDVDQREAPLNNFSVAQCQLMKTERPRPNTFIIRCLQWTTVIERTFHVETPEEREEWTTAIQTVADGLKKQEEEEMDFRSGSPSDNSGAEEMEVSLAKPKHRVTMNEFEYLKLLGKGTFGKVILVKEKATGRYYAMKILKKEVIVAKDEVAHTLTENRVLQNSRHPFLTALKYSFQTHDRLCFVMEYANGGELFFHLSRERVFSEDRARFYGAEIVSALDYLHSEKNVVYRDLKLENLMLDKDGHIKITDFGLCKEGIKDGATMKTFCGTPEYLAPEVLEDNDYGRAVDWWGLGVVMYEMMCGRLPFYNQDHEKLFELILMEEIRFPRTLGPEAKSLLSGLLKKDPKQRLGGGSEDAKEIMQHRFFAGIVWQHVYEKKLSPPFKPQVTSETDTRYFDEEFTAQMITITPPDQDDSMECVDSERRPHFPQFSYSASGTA

AKT [5] = experiment: Western blotting of T-AKT in PANC-1 cells; assay type: cell-based; conditions: 24 h
SW620 cells [6] = experiment: Cell death monitoring with DRAQ7 in SW620 cells; assay type: cell-based; conditions: 5 μM, DRAQ7, 0-72 h
AKT [7] = experiment: Western blotting of T-AKT in HT-29 cells; assay type: cell-based; conditions: HT-29 cells (BRAF mutant), 1 μM, 24 h
AKT2 [8] = target: T1, AKT2; experiment: Global TMT MS-based quantitative proteomic study in SW620 cells; assay type: cell-based; conditions: 1 μM, 18 h, 62 compared to 63
[9] = Mouse pharmacokinetic study; assay type: in vivo, male Swiss Albino mice; conditions: mice, single IP dose 75 mg/kg
AKT [10] = experiment: Western blotting of T-AKT in Colo205 cells; assay type: cell-based; conditions: Colo205 cells (BRAF mutant), 1 μM, 24 h
AKT [11] = experiment: Western blotting of T-AKT in Mia PaCa-2 cells; assay type: cell-based; conditions: Mia PaCa-2 cells (KRAS mutant), Figure S2A
AKT [12] = experiment: Western blotting of T-AKT in SKMEL 239 cells; assay type: cell-based; conditions: SKMEL 239 cells (BRAF mutant), 1 μM, 24 h
SW620 cells [13] = experiment: Colony formation assay in SW620 cells; assay type: cell-based; conditions: 2 weeks, crystal violet
P-PRAS40 = experiment: Western blotting of P-PRAS40 in SW620 cells; conditions: 1 μM, 18 h, Figure S4
AKT2 [14] = target: T1, AKT2; experiment: Western blotting of AKT isoforms in SW620 cells; assay type: cell-based; conditions: Figure S3
AKT1 [15] = target: T2, AKT1; experiment: Global TMT MS-based quantitative proteomic study in SW620 cells; assay type: cell-based; conditions: 1 μM, 18 h, approximately 6433 proteins detected
AKT1 [16] = target: T2, AKT1; experiment: Western blotting of AKT isoforms in SW620 cells; assay type: cell-based; conditions: Figure S3

AKT3, sequence (Q9Y243 whole entry): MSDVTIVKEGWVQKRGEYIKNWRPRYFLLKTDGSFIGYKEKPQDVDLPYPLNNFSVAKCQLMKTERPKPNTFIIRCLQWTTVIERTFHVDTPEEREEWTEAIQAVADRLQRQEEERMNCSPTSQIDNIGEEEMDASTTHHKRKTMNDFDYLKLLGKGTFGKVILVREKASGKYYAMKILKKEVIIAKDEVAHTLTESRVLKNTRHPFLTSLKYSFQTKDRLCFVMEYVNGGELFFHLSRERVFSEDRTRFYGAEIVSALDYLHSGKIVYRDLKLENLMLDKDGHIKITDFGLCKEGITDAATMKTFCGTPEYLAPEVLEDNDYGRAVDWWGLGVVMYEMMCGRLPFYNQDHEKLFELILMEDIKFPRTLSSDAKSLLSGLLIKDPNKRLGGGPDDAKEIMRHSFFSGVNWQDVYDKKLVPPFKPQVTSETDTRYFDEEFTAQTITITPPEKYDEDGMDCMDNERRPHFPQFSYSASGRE

## Cc1ncsc1-c1ccc([C@H](C)NC(=O)[C@H]2C[C@H](OCc3ccccc3)CN2C(=O)[C@@H](NC(=O)CCCCCCCCCCNC(=O)CCc2cccc(-c3ccc4nc(-c5cccnc5N)n(-c5ccc(C6(N)CCC6)cc5)c4n3)c2)C(C)(C)C)cc1 [Compound 64, (2R,4S)-1-((S)-2-(11-(3-(3-(3-(4-(1-Aminocyclobutyl)phenyl)-2-(2-aminopyridin-3-yl)-3H-imidazo[4,5-b]pyridin-5-yl)phenyl)propanamido)undecanamido)-3,3-dimethylbutanoyl)-4-(benzyloxy)-N-((S)-1-(4-(4-methylthiazol-5-yl)phenyl)ethyl)pyrrolidine-2-carboxamide]
AKT [1]; SW620 cells, 24 h
  effect on AKT protein levels at high concentrations (in words): no effect
AKT3
  decrease of AKT3 inhibition potency compared to 62: 3.6 fold
SW620 cells [2]
  cell growth inhibition (in words): inactive
AKT2 [3]
  decrease of AKT2 inhibition potency compared to 62: 6 fold
AKT1 [4]
  decrease of AKT1 inhibition potency compared to 62: 1.5 fold

## Cc1ncsc1-c1ccc([C@H](C)NC(=O)[C@@H]2C[C@@H](O)CN2C(=O)[C@@H](NC(=O)CCCCCCCCCCNC(=O)CCc2cccc(-c3ccc4nc(-c5cccnc5N)n(-c5ccc(C6(N)CCC6)cc5)c4n3)c2)C(C)(C)C)cc1 [Compound 62, (2S,4R)-1-((S)-2-(11-(3-(3-(3-(4-(1-Aminocyclobutyl)phenyl)-2-(2-aminopyridin-3-yl)-3H-imidazo[4,5-b]pyridin-5-yl)phenyl)propanamido)undecanamido)-3,3-dimethylbutanoyl)-4-hydroxy-N-((S)-1-(4-(4-methylthiazol-5-yl)phenyl)ethyl)pyrrolidine-2-carboxamide]
AKT [1]; SW620 cells (KRAS mutant), Figure S2
  T-AKT degradation (western blot, in words): effectively and completely depleted T-AKT; also recorded: much more effective than MS21
AKT [1]; SW620 cells, 30 nM, 24 h
  T-AKT degradation (in words): substantial T-AKT depletion
AKT [1]; SW620 cells, 100 nM, 24 h
  T-AKT degradation (in words): nearly complete AKT degradation
AKT [1]; SW620 cells, 1 μM, 18 h, Figure S4
  T-AKT level (western blot verification for proteomics, in words): significantly reduced
AKT [1]; SW620 cells, 1 μM, at 4 h
  T-AKT degradation in time-course study (in words): Significant AKT degradation
AKT [1]; SW620 cells, 1 μM, at 12 h, maintained for at least another 12 h
  T-AKT degradation in time-course study (in words): Near complete AKT degradation
AKT [1]; SW620 cells, 1 μM, up to 24 h
  T-AKT protein level in time-course study (in words): time-dependently reduced T-AKT protein levels
AKT [1]; SW620 cells, 24 h
  effect on AKT protein levels at high concentrations (in words): no “hooker effect” was observed
AKT [1]; read-out: DC50, T-AKT degradation, SW620 cells, 24 h, western blot
  DC50: 23 ± 16 nM
AKT [5]; PANC-1 cells (KRAS mutant), 1 μM
  T-AKT degradation (in words): near-complete AKT degradation
AKT [5]; PANC-1 cells, 100 nM
  T-AKT degradation (in words): complete degradation
AKT [5]; PANC-1 cells, concentrations up to 10 μM
  T-AKT degradation at high concentrations (in words): no “hooker effect” was observed
SW620 cells [6]
  induction of cell apoptosis / percent cell death (in words): most effectively
AKT [7]
  T-AKT degradation (in words): more effective than MS21
AKT2 [8]
  AKT2 protein level in TMT proteomics (in words): also reduced
[9]
  clinical signs during the PK study: No clinical signs were observed
[9]; maintained for at least 12 h
  plasma concentrations: above 100 nM
AKT [10]
  T-AKT degradation (in words): more effective than MS21
AKT [11]
  T-AKT degradation (western blot, in words): modestly induced AKT degradation
AKT [12]
  T-AKT degradation (in words): more effective than MS21
SW620 cells [13]
  inhibition of colony formation (in words): significantly inhibited colony formation
P-PRAS40
  P-PRAS40 inhibition (western blot verification for proteomics, in words): inhibited
AKT2 [14]
  AKT2 degradation (western blot, in words): potently induced
AKT1 [15]
  AKT1 protein level in TMT proteomics (in words): reduced significantly
  proteome-wide degradation selectivity (in words): generally selective AKT degrader
AKT1 [16]
  AKT1 degradation (western blot, in words): potently induced

Source: article PMC9613624 (Journal of medicinal chemistry, 2022)
